Test results reported in ChEMBL document CHEMBL1201862, “PubChem BioAssay data set” (2004).
Calls of active or inactive are those of the source.

Assays:
[1] = biological target: T1, Heat shock factor protein 1 (Mus musculus, UniProt P38532); test: HSF1 potentiators in luciferase reporter cells, confirmation, cell-based, NIH3T3, luminescence, dose retest (AID 435004); format: functional;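 note: stress induced by proteasome inhibitor MG132 added 30 min after compound; luciferase reporter driven by HSF1 response element in NIH3T3 cells; actives raise luminescence as potentiators of the MG132 stress response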
T1 sequence (P38532 whole entry): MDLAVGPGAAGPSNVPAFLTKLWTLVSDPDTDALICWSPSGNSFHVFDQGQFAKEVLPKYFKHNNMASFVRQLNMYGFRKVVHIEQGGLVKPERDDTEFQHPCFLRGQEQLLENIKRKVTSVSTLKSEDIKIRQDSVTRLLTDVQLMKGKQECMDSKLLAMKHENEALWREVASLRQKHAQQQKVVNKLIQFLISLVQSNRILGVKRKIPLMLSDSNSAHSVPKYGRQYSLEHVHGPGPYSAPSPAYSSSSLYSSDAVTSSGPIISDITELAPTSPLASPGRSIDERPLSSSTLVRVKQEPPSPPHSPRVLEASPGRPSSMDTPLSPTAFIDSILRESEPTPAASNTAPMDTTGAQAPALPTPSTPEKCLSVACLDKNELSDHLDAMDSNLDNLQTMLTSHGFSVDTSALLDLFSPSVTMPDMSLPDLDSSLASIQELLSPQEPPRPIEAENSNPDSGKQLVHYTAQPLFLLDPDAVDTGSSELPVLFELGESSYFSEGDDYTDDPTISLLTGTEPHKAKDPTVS

[2] = cells; format: functional
[3] = biological target: T2, Cytochrome P450 1A2 (Homo sapiens, UniProt P05177);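 note: PubChem cytochrome P450 panel assay, CYP1A2 panel member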
T2 sequence (P05177 whole entry): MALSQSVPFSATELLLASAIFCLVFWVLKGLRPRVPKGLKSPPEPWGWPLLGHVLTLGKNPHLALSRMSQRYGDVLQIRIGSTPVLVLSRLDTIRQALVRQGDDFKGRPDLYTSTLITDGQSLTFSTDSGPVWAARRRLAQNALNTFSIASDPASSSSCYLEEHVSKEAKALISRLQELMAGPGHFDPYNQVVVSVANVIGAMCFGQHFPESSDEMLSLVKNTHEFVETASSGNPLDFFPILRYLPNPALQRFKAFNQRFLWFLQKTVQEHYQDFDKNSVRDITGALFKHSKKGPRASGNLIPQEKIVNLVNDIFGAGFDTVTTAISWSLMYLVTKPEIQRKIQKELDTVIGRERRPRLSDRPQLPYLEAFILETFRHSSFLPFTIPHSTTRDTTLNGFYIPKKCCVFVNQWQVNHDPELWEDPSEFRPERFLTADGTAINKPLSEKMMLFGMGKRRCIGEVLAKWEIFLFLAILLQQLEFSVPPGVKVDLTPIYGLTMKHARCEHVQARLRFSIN

[4] = NIH-3T3 fibroblast cytotoxicity, dose response, cytotoxicity control, cell-based, fluorescence, Alamar Blue, secondary assay (AID 2327); format: functional;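 note: NIH-3T3 mouse fibroblasts cultured with fluconazole at 8 µg/mL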
[5] = C. albicans growth with fluconazole, confirmation, fluorescence, retest (AID 2467); format: functional, cell-based
[6] = biological target: Cytochrome P450 2D6 (Homo sapiens, UniProt P10635);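 note: CYP2D6 member of a cytochrome P450 panel assay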
Cytochrome P450 2D6, sequence (P10635 whole entry): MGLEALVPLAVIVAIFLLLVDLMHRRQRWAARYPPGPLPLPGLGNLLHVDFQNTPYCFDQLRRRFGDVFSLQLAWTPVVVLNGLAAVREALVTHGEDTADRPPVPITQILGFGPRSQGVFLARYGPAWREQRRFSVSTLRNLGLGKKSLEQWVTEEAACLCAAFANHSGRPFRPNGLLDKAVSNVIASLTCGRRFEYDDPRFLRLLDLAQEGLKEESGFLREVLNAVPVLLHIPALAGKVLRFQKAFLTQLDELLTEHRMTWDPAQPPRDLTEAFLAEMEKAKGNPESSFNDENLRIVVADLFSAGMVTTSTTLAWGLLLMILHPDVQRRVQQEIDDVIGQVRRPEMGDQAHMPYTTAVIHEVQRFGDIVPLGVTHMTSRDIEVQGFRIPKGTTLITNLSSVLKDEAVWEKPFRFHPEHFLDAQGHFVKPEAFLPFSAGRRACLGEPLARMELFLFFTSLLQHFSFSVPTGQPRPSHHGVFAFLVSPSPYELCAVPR

[7] = biological target: Cytochrome P450 2C9 (Homo sapiens, UniProt P11712)
Cytochrome P450 2C9, sequence (P11712 whole entry): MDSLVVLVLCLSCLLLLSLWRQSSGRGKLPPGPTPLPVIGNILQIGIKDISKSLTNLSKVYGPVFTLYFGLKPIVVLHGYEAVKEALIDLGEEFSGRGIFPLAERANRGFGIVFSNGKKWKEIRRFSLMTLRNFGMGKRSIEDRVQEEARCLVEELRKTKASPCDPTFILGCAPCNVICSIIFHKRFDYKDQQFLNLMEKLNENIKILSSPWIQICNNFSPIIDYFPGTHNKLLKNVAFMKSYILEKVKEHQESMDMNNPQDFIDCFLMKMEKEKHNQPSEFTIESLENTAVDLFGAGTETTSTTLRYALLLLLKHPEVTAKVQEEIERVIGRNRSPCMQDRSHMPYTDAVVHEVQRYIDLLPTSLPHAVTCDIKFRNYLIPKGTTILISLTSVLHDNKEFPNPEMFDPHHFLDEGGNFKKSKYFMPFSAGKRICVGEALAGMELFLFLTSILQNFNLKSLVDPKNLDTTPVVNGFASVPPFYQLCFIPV

[8] = biological target: T3, Rac GTPase-activating protein 1 (Homo sapiens, UniProt Q9H0H5); test: MgcRacGAP GTPase-activating activity inhibitors, confirmation, biochemical, ADP Hunter fluorescence, primary and confirmatory (AID 624330); format: functional
T3 sequence (Q9H0H5 whole entry): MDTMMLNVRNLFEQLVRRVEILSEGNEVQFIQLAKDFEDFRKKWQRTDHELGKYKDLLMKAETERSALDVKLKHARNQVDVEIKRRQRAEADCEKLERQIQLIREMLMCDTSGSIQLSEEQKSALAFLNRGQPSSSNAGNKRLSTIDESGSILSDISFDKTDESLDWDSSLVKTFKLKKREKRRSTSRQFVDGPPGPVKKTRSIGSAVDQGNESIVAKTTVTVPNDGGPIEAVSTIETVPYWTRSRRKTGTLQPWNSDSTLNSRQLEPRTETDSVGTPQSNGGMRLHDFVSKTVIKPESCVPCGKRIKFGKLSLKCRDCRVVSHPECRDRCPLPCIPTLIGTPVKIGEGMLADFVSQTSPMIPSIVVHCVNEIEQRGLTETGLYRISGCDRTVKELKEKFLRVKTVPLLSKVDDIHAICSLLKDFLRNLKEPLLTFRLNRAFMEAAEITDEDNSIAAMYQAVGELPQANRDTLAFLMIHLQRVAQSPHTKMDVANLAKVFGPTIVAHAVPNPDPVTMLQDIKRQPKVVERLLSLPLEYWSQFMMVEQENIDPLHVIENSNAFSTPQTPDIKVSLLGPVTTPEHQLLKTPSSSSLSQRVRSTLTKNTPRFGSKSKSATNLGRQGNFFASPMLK

[9] = biological target: Cytochrome P450 2C19 (Homo sapiens, UniProt P33261); test: Cytochrome panel assay with activity outcomes. Panel member name: p450-cyp2c19 Compounds with AC50 equal or less than 10 uM are considered active; format: functional
Cytochrome P450 2C19, sequence (P33261 whole entry): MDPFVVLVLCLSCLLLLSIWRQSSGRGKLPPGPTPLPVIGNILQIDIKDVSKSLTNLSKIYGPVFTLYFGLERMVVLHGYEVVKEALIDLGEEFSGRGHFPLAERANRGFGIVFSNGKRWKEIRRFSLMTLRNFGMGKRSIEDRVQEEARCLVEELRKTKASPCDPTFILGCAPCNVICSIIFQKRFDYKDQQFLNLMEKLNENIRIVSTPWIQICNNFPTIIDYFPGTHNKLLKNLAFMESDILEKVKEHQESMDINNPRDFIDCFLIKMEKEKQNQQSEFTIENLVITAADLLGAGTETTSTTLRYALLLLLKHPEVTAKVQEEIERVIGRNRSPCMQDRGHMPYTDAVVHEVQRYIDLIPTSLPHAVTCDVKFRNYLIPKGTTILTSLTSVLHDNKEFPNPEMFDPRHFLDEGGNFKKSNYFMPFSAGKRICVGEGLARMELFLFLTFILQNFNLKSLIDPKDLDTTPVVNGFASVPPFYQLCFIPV

[10] = biological target: T4, Protein skinhead-1 (Caenorhabditis elegans, UniProt P34707); format: functional
T4 sequence (P34707 whole entry): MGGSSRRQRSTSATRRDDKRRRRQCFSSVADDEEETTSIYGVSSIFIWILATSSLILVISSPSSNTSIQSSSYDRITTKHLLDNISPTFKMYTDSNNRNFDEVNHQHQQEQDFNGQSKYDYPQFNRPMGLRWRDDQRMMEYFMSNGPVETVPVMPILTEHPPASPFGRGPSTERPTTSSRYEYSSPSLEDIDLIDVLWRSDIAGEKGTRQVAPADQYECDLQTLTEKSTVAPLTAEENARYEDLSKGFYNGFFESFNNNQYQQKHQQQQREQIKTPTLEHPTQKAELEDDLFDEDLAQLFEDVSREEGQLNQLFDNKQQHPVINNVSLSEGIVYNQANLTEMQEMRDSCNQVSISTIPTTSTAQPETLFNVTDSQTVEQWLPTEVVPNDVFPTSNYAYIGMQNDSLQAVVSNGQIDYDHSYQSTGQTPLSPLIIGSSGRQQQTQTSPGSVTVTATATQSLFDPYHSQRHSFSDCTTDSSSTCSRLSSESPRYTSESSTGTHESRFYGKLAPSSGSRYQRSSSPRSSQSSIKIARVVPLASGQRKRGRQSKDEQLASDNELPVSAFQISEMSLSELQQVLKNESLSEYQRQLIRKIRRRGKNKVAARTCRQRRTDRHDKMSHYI

[11] = tested on: H9c2; test: cells; format: functional, cell-based; settings: Rattus norvegicus, H9c2, Myocardium;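 note: confirmatory concentration-response retest of ultra-high-throughput screening hits for modulation of myocardial damage; cell death induced by hydrogen peroxide oxidative stress; compound pretreatment for 60 min then peroxide exposure for 2 h; potency is for protecting the cells against peroxide damage rather than for killing them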
[12] = biological target: Cytochrome P450 3A4 (Homo sapiens, UniProt P08684);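 note: CYP3A4 tested as one member of a cytochrome P450 panel screen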
Cytochrome P450 3A4, sequence (P08684 whole entry): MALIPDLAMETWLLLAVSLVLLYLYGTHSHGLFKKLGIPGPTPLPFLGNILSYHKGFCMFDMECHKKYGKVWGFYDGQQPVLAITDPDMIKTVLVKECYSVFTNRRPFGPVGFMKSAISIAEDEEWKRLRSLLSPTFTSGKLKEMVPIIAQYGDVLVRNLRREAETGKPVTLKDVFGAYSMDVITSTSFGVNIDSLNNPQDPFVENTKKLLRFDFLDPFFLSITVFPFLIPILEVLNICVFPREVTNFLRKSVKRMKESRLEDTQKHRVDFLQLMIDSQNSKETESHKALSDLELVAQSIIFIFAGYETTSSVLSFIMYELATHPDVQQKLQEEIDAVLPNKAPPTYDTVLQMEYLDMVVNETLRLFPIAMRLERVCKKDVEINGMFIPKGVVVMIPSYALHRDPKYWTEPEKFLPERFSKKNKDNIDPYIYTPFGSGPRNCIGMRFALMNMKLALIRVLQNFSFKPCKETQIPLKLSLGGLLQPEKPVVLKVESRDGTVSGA

Structure (SMILES): CCC(C)NC(=O)CC(NS(=O)(=O)c1ccc(Cl)cc1)c1ccco1 (stereo not given)
- EC50 [1]: > 260 µM (inactive)

Structure (SMILES): COC(=O)c1cc(/C=C/c2ccccc2)on1
- IC50 [2]: 5.44 µM (active)
- AC50 [3]: 2 µM (inconclusive)

Structure (SMILES): O=C(Cn1c2ccc(F)cc2c2nc3n(c(=O)c21)CCS3)N1CCCC1
- EC50 [4]: > 160 µM (inactive)
- EC50 [5]: 0.66 µM (active)

Structure (SMILES): O=C(Nc1ccc(Cl)cc1)OCc1cc(-c2ccccc2)on1
- AC50 [6]: 3.98 µM (inconclusive)
- AC50 [7]: 2.82 µM (inconclusive)

Structure (SMILES): COC(=O)c1cc(NCc2cccs2)ccc1N1CCOCC1
- IC50 [8]: 135 µM (active)

Structure (SMILES): CCN1C(=O)C2(SC(NC(C)=O)=NN2C(C)=O)c2cc(C)ccc21 (stereo not given)
- AC50 ([9]; read-out: AC50): 14.1 µM (inconclusive)
- AC50 [7]: 31.6 µM (inconclusive)

Structure (SMILES): O=c1c(-c2ccccc2)nc2cnc(N3CCOCC3)nc2n1Cc1ccc(F)cc1
- AC50 [3]: 20 µM (inconclusive)
- AC50 [7]: 15.8 µM (inconclusive)

Structure (SMILES): Cc1ccc(C(=O)OCC(=O)N2CCCCCC2)c(O)c1
- IC50 [2]: 11.1 µM (active)

Structure (SMILES): CCOc1ccc(S(=O)(=O)NCCSc2ccccc2)cc1
- EC50 [1]: > 260 µM (inactive)

Structure (SMILES): CCOC(=O)CN1NC2(CCCC(C)C2)N=C1S (stereo not given)
- IC50 [2]: 48.9 µM (active)

Structure (SMILES): Clc1ccc(Nc2ncnc3c2cnn3-c2ccccc2)cc1
- IC50 [10]: > 100 µM (inactive)

Structure (SMILES): Cc1cccc(C)c1NCc1nnc(SCC(=O)Nc2nc(-c3ccccc3)cs2)n1-c1ccccc1
- EC50 [1]: > 260 µM (inactive)

Structure (SMILES): O=[N+]([O-])c1ccc(Cc2nnc(O)c3ccccc23)cc1
- IC50 [11]: > 79 µM (inactive)
- IC50 [10]: > 100 µM (inactive)

Structure (SMILES): Cc1ccc(C(=O)N(C)CC(=O)Nc2ccc(N3CCOCC3)cc2)s1
- IC50 [10]: > 100 µM (inactive)

Structure (SMILES): COc1cc(/C=C/c2ccc3c([N+](=O)[O-])cccc3n2)ccc1OCC(=O)O
- IC50 [2]: 2.39 µM (active)

Structure (SMILES): Cc1ccc(N2Cc3ccccc3OC(C)C2=O)cc1 (stereo not given)
- EC50 [1]: > 260 µM (inactive)

Structure (SMILES): CC(C)[C@@H]1O[C@H](/C=C\c2ccccc2)OCC1(C)C
- AC50 ([9]; read-out: AC50): 5.01 µM (inconclusive)
- AC50 [12]: 5.01 µM (inconclusive)
- AC50 [7]: 3.16 µM (inconclusive)

Structure (SMILES): Cc1ccc(/C=C2\OC(=O)c3ccccc32)cc1
- AC50 [7]: 0.355 µM (inconclusive)

Structure (SMILES): COc1ccc([N+](=O)[O-])cc1NCc1ccccc1C
- AC50 [6]: 17.8 µM (inconclusive)
- AC50 [7]: 17.8 µM (inconclusive)

Structure (SMILES): CC(=O)CSc1nc2ccccc2s1
- IC50 [10]: > 100 µM (inactive)

Structure (SMILES): O=C(Nc1nnc(-c2ccccn2)o1)c1ccc(Br)cc1
- EC50 [4]: 18.3 µM (inconclusive)
- EC50 [5]: > 38 µM (not active)

Structure (SMILES): Cc1ccc(NC(=O)CCNCc2ccco2)cc1S(=O)(=O)N(C)C
- IC50 [8]: 229 µM (active)

Structure (SMILES): O=[N+]([O-])c1ccc(N2CCN(Cc3ccc([N+](=O)[O-])o3)CC2)cc1
- EC50 [4]: > 150 µM (inactive)
- EC50 [5]: > 38 µM (not active)
- IC50 [2]: < 0.1 µM (active)

Structure (SMILES): O=c1c(CCc2ccccc2)nc2cnc(N3CCOCC3)nc2n1CCc1ccccc1
- AC50 [3]: 25.1 µM (inconclusive)
- AC50 [7]: 2 µM (inconclusive)

Structure (SMILES): CN(C)/C=C/C(=O)c1cccc(Oc2ncccn2)c1
- EC50 [1]: > 260 µM (inactive)

Structure (SMILES): CC(C)(CN)CC(=O)O
- EC50 [1]: > 260 µM (inactive)

Structure (SMILES): COC(=O)C(C)Sc1nc2c(c(=O)n(C)c(=O)n2C)n1CCC(C)C (stereo not given)
- EC50 [1]: > 260 µM (inactive)

Structure (SMILES): O=[N+]([O-])c1cccc2ccc(/C=C/c3ccc(F)cc3)nc12
- IC50 [10]: > 100 µM (inactive)

Structure (SMILES): O=C1CC(N(Cc2ccc3c(c2)OCO3)C(=O)Nc2ccc(F)cc2)C(=O)N1c1ccccc1 (stereo not given)
- EC50 [1]: > 260 µM (inactive)

Structure (SMILES): CC(/C=C/c1cccs1)=C\C(=O)O
- EC50 [1]: > 260 µM (inactive)

Structure (SMILES): CCc1ccc(-n2c(SCC(=O)Nc3cc(C)[nH]n3)nc3nncc-3c2O)cc1
- IC50 [10]: > 100 µM (inactive)

Structure (SMILES): CCOC(=O)C1=C(C)N=C(C)/C(=C(\O)OCC)C1c1sccc1C (stereo not given)
- AC50 [7]: 0.891 µM (inconclusive)

Structure (SMILES): O=C(O)c1ccc2c(c1)CCCN2
- IC50 [10]: > 100 µM (inactive)

Structure (SMILES): COc1ccccc1C(OC(=O)c1cccs1)C(=O)NCC1CCCO1 (stereo not given)
- AC50 ([9]; read-out: AC50): 5.01 µM (inconclusive)
- AC50 [3]: 14.1 µM (inconclusive)
- AC50 [12]: 25.1 µM (inconclusive)
- AC50 [7]: 14.1 µM (inconclusive)

Structure (SMILES): Oc1ccc(NCc2ccc(OCc3ccccc3)cc2)cc1
- IC50 [8]: 60.5 µM (active)

Structure (SMILES): NC(=O)c1ccc([N+](=O)[O-])cc1SCc1ccccc1
- AC50 [12]: 12.6 µM (inconclusive)
- AC50 [7]: 28.2 µM (inconclusive)

Structure (SMILES): COc1ccc(OC)c(-n2c(=O)c3ccccc3c3ccccc3c2=O)c1
- EC50 [1]: 30.2 µM (active)

Structure (SMILES): CCCCc1cc(=O)oc2cc(OCC(=O)N(CC)CC)ccc12
- AC50 ([9]; read-out: AC50): 31.6 µM (inconclusive)
- AC50 [7]: 25.1 µM (inconclusive)

Structure (SMILES): O=C1Nc2ccccc2C(O)(C(=O)NCc2ccco2)N1c1ccc(Cl)c(Cl)c1 (stereo not given)
- IC50 [10]: > 100 µM (inactive)

Structure (SMILES): Cc1ccc(C(=O)NC(=S)Nc2cccc3nsnc23)cc1
- AC50 [9]: inconclusive
- AC50 [7]: 35.5 µM (inconclusive)

Structure (SMILES): COc1cc(/C=C/C(=O)OCC(=O)c2ccc(OC(F)F)cc2)ccc1O
- IC50 [8]: 64 µM (active)

Structure (SMILES): Nc1cc2c(cc1Cl)-c1ccccc1C2
- IC50 [10]: 52.5 µM (inactive)

Structure (SMILES): Nc1cc(Cc2ccccc2)ccc1O
- IC50 [8]: 18 µM (active)

Structure (SMILES): O=[N+]([O-])c1ccc(/C=N/NS(=O)(=O)c2ccc(Cl)cc2)o1
- IC50 [2]: 6.23 µM (active)

Structure (SMILES): C/C(=N\N1C(=O)CSC1=S)c1ccc(Br)cc1
- EC50 [4]: > 160 µM (inactive)
- EC50 [5]: > 38 µM (not active)

Structure (SMILES): Cc1cccc(/C=N/c2ccc3c4c(cccc24)CC3)c1O
- IC50 [8]: 20 µM (active)

Structure (SMILES): COC(=O)/C(=N\Nc1ccc(Cl)cc1)Sc1nnc(-c2ccc(OC)cc2)n1C
- EC50 [4]: > 160 µM (inactive)
- EC50 [5]: > 38 µM (not active)

Structure (SMILES): O=C1c2ccccc2C(Cc2ccncc2)(Cc2ccncc2)c2ccccc21
- AC50 [3]: 39.8 µM (inconclusive)
- AC50 [7]: 20 µM (inconclusive)
